{
  "source": "patent US4267331A",
  "about": "“Process for the production of 2-substituted pyrido[4,3-b]-indoles” (Pfizer Inc., priority 1980, dated 1981)",
  "system": "amphetamine-induced symptoms (cage movement behavior after d-amphetamine sulfate)",
  "experiment": "Antagonism of amphetamine stereotypy in rats",
  "assay_type": "in vivo",
  "conditions": "Rattus norvegicus, sc, Part A",
  "text": "The tranquilizing agents of the present invention are characterized by relief of such schizophrenic manifestations in humans as hallucinations, hostility, suspiciousness, emotional or social withdrawal, anxiety, agitation and tension. A standard procedure of detecting and comparing tranquilizing activity of compounds in this series and for which there is an excellent correlation with human efficacy is the antagonism of amphetamine-induced symptoms in rat tests, as taught by A. Weissman, et al., J. Pharmacol. Exp. Ther., 151, 339 (1966) and by Quinton, et al., Nature, 200, 178, (1963).\nAntagonism of Amphetamine Stereotypy in Rats Test Procedures and Results\nThe effects of the compounds of the present invention on prominent amphetamine-induced symptoms were studied in rats by a rating scale modeled after the one reported by Quinton and Halliwell, and Weissman. Groups of five rats were placed in a covered plastic cage measuring approximately 26 cm.×42 cm.×16 cm. After a brief period of acclimation in the cage, the rats in each group were treated subcutaneously (s.c.) with the test compound. They were then treated 1, 5 and 24 hrs. later with d-amphetamine sulfate, 5 mg./kg. intraperitoneally (i.p.). […] On the basis of dose-response data after amphetamine it was possible to determine the effective dose of the compound necessary to antagonize or block the characteristic amphetamine behavior of cage movement for fifty percent of the rats tested (ED50). The time of rating chosen coincides with the peak action of amphetamine which is 60-80 min. after treatment with this agent.\nEmploying the above-described procedure, the following 4a,9b-trans compounds were tested for their ability to block the behavior effects of amphetamine, the results being reported as the ED50 in mg./kg. at the indicated times: [drawing 33]",
  "note": "Where two headings read alike, the source gives them in different places.",
  "data": [
    {"smiles": "COc1ccc(C(O)CCCN2CCC3C(C2)c2cc(F)ccc2N3c2ccc(F)cc2)cc1", "note": "(stereo not drawn)", "values": [
      {"measurement": "ED50", "setting": "1 h, s.c. per method b367, 1 Hr., read-out: ED50 (mg./kg.) 1 Hr., antagonism of amphetamine stereotypy", "value": "0.1 to 0.32", "unit": "mg/kg"},
      {"measurement": "ED50", "setting": "5 h, s.c. per method b367, 5 Hr., read-out: ED50 (mg./kg.) 5 Hr., antagonism of amphetamine stereotypy", "value": "< 0.1", "unit": "mg/kg"},
      {"measurement": "ED50", "setting": "24 h, s.c. per method b367, 24 Hrs., read-out: ED50 (mg./kg.) 24 Hrs., antagonism of amphetamine stereotypy", "value": "< 0.32", "unit": "mg/kg"}
    ]}
  ]
}
